The NIST ThermoML archive (doi:10.1016/j.fluid.2006.05.015)

Details: Fluid (supercritical or subcritical phases), Constant-volume piezometry

O [water]
Details | mass density [kg/m3]
299.25 K, 5182 kPa | 999.2
299.25 K, 31060 kPa | 1010.4
349.12 K, 8540 kPa | 977.86
349.12 K, 24440 kPa | 984.93
399.57 K, 3183 kPa | 939.45
399.57 K, 30090 kPa | 952.6
438.94 K, 6455 kPa | 905.35
438.94 K, 27860 kPa | 917.35
494.18 K, 8890 kPa | 844.81
494.18 K, 29240 kPa | 859.91
555.43 K, 9803 kPa | 751.67
555.43 K, 27940 kPa | 777.34
617.27 K, 16300 kPa | 603.42
617.27 K, 28080 kPa | 653.82
